Data on 4 compounds can be found in ChEMBL document CHEMBL1152775, “Effect of 3,4-ethylenedioxy-extension of thiophene core on the DNA/RNA binding properties and biological activity of bisbenzimidazole amidines” (Bioorg Med Chem, 2009).

Assay [1] deals with Trypanosoma cruzi. The assay can be described thus: Antitrypanosomal activity against Trypanosoma cruzi clone 14 epimastigotes on day 5. The assay is classed as functional, organism-based. The conditions noted are these: 120 h.
Assay [2] has as its system Calf thymus DNA. The experiment in a line: Binding affinity to calf thymus double stranded DNA assessed as change in melting temperature at drug to DNA ratio of 0.2 by thermal denaturation study. In kind it is nucleic-acid assay. Particulars: Bos taurus.
Assay [3] has as its system HeLa. The experiment in a line: Cell cycle distribution in human HeLa cells assessed as accumulation at S phase at 1 uM after 72 hrs by propidium iodide-based flow cytometry. The assay is classed as functional. (In general: Flow cytometry measures light scatter and fluorescence of single cells or particles in a stream.)
Assay [4] has as its system Calf thymus DNA. The assay can be described thus: Binding affinity to calf thymus double stranded DNA by UV visible spectroscopy. Particulars: Bos taurus. The assay is classed as nucleic-acid assay.
The nature of assay [5]: Binding affinity to poly A-poly U double stranded RNA by CD spectroscopy.
Assay [6] deals with HeLa. The experiment in a line: Antiproliferative activity against human HeLa cells at 0.1 to 100 uM after 72 hrs by MTT assay. In kind it is functional, cell-based.
The test system of assay [7] is HeLa. The assay can be described thus: Cell cycle distribution in human HeLa cells assessed as accumulation at G0/G1 phase at 1 uM after 48 hrs by propidium iodide-based flow cytometry. In kind it is functional.
Assay [8] relates to Nucleic Acid. The experiment in a line: Binding affinity to poly A-poly U double stranded RNA assessed as change in melting temperature at […] of 0.1 by thermal denaturation study. The assay is classed as nucleic-acid assay.
The next assay has as its system NCI-H358. The experiment in a line: Antiproliferative activity against human NCI-H358 cells at 0.1 to 100 uM after 72 hrs by MTT assay. In kind it is functional, cell-based. (Tetrazolium assays rely on reduction of a dye to a coloured formazan, in cell work by metabolically active cells.)
The test system of assay [9] is Nucleic Acid. The assay can be described thus: Binding affinity to poly A-poly U double stranded RNA assessed as change in melting temperature at […] of 0.2 by thermal denaturation study. The assay is classed as nucleic-acid assay.
For assay [10], the system named is HEp-2. The experiment in a line: Antiproliferative activity against human Hep2 cells at 0.1 to 100 uM after 72 hrs by MTT assay. The assay is classed as functional, cell-based.
In assay [11] the test system is MCF7. The experiment in a line: Antiproliferative activity against human MCF7 cells at 0.1 to 100 uM after 72 hrs by MTT assay. The assay is classed as functional, cell-based.
In assay [12] the test system is HeLa. The experiment in a line: Cell cycle distribution in human HeLa cells assessed as accumulation at G2/M phase at 1 uM after 48 hrs by propidium iodide-based flow cytometry. In kind it is functional.
Assay [13] relates to MCF7. The assay can be described thus: Antiproliferative activity against human MCF7 cells at 0.1 uM after 72 hrs by MTT assay relative to control. In kind it is functional. The conditions noted are these: MCF7, 72 h.
Assay [14] deals with HeLa. The experiment in a line: Cell cycle distribution in human HeLa cells assessed as accumulation at S phase at 1 uM after 48 hrs by propidium iodide-based flow cytometry. In kind it is functional.
For assay [15], the system named is Calf thymus DNA. The experiment in a line: Binding affinity to calf thymus double stranded DNA assessed as change in melting temperature at drug to DNA ratio of 0.05 by thermal denaturation study. In kind it is nucleic-acid assay. Particulars: Bos taurus.
In assay [16] the test system is HeLa. The experiment in a line: Cell cycle distribution in human HeLa cells assessed as accumulation at G0/G1 phase at 1 uM after 72 hrs by propidium iodide-based flow cytometry. The assay is classed as functional.
Assay [17] concerns Calf thymus DNA. The experiment in a line: Binding affinity to calf thymus double stranded DNA assessed as change in melting temperature at drug to DNA ratio of 0.1 by thermal denaturation study. In kind it is nucleic-acid assay. The conditions noted are these: Bos taurus.
The subject of assay [18] is Calf thymus DNA. The experiment in a line: Binding affinity to calf thymus double stranded DNA minor groove at drug to DNA ratio of 0 to 0.2 by CD spectroscopy. The assay is classed as nucleic-acid assay. The conditions noted are these: Bos taurus.
Assay [19] deals with HeLa. The assay can be described thus: Cell cycle distribution in human HeLa cells assessed as accumulation at G2/M phase at 1 uM after 24 hrs by propidium iodide-based flow cytometry. In kind it is functional.
The next assay relates to HT-29. The assay can be described thus: Antiproliferative activity against human HT-29 cells at 0.1 to 100 uM after 72 hrs by MTT assay. In kind it is functional, cell-based.
A further assay concerns AGS. The experiment in a line: Antiproliferative activity against human AGS cells at 0.1 to 100 uM after 72 hrs by MTT assay. In kind it is functional, cell-based.
For assay [20], the system named is HeLa. The experiment in a line: Cell cycle distribution in human HeLa cells assessed as accumulation at G2/M phase at 1 uM after 72 hrs by propidium iodide-based flow cytometry. The assay is classed as functional.
Assay [21] can be described thus: Binding affinity to poly A-poly U double stranded RNA by UV visible spectroscopy.
Assay [22] has as its system HEp-2. The experiment in a line: Antiproliferative activity against human Hep2 cells at 1 uM after 72 hrs by MTT assay relative to control. In kind it is functional. Particulars: HEp-2, 72 h.
The subject of assay [23] is HeLa. The assay can be described thus: Antiproliferative activity against human HeLa cells at 1 uM after 72 hrs by MTT assay relative to control. The assay is classed as functional.
Assay [24] concerns Trypanosoma cruzi. The experiment in a line: Antitrypanosomal activity against Trypanosoma cruzi clone 14 epimastigotes after 8 days. The conditions noted are these: 192 h. In kind it is functional, organism-based.
The next assay is filed under the species Bos taurus. The assay can be described thus: Ratio of IC50 of ethidium bromide to IC50 of drug for calf thymus DNA by ethidium bromide displacement assay.
The next assay relates to MIA PaCa-2. The experiment in a line: Antiproliferative activity against human MIAPaCa2 cells at 0.1 to 100 uM after 72 hrs by MTT assay. In kind it is functional, cell-based.
In a further assay the test system is Caco-2. The assay can be described thus: Antiproliferative activity against human Caco-2 cells at 0.1 to 100 uM after 72 hrs by MTT assay. The assay is classed as functional, cell-based.
Assay [25] has as its system Nucleic Acid. The assay can be described thus: Binding affinity to poly A-poly U double stranded RNA assessed as change in melting temperature at […] of 0.3 by thermal denaturation study. In kind it is nucleic-acid assay.
Assay [26] relates to Calf thymus DNA. The assay can be described thus: Binding affinity to calf thymus double stranded DNA assessed as change in melting temperature at drug to DNA ratio of 0.3 by thermal denaturation study. The conditions noted are these: Bos taurus. In kind it is nucleic-acid assay.
The subject of assay [27] is HeLa. The assay can be described thus: Cell cycle distribution in human HeLa cells assessed as accumulation at G2/M phase at 10 uM after 72 hrs by propidium iodide-based flow cytometry. The assay is classed as functional.
For assay [28], the system named is HeLa. The assay can be described thus: Cell cycle distribution in human HeLa cells assessed as accumulation at S phase at 10 uM after 48 hrs by propidium iodide-based flow cytometry. The assay is classed as functional.
The subject of assay [29] is HeLa. The assay can be described thus: Cell cycle distribution in human HeLa cells assessed as accumulation at G2/M phase at 10 uM after 48 hrs by propidium iodide-based flow cytometry. The assay is classed as functional.
The subject of assay [30] is HeLa. The experiment in a line: Cell cycle distribution in human HeLa cells assessed as accumulation at G0/G1 phase at 10 uM after 48 hrs by propidium iodide-based flow cytometry. In kind it is functional.
The subject of assay [31] is HeLa. The experiment in a line: Cell cycle distribution in human HeLa cells assessed as accumulation at S phase at 10 uM after 72 hrs by propidium iodide-based flow cytometry. In kind it is functional.
Assay [32] concerns HeLa. The assay can be described thus: Cell cycle distribution in human HeLa cells assessed as accumulation at G0/G1 phase at 10 uM after 72 hrs by propidium iodide-based flow cytometry. In kind it is functional.
In assay [33] the test system is HeLa. The experiment in a line: Cell cycle distribution in human HeLa cells assessed as accumulation at G2/M phase at 10 uM after 24 hrs by propidium iodide-based flow cytometry. The assay is classed as functional.

Calls of active or inactive are those of the source. The calls are words filed in the database; no cut-off is given here.

A word on the IC50: it is the concentration that inhibits the measured activity by half. The term ΔTm denotes the change in melting temperature against a reference sample. As a reminder, the inhibition is the share of the control response that was lost under treatment. Low values mean a response near the control, high ones a response far below the control. Regarding `CC(C)NC(=N)c1ccc2nc(-c3sc(-c4nc5ccc(C(=N)NC(C)C)cc5[nH]4)c4c3OCCO4)[nH]c2c1.Cl.Cl`, the IC50 turned out to be 4.25 µM with Trypanosoma cruzi [1] and 2.4 µM in the assay with Trypanosoma cruzi [24]. In addition, the ΔTm with Calf thymus DNA [2] was over 15.4 °C; with Nucleic Acid [8] it was 0.9 °C; with Nucleic Acid [9], 0.8 °C; with Calf thymus DNA [15], 11.7 °C; with Calf thymus DNA [17], over 15.4 °C. Further, the Activity in the assay on HeLa [3] came out at 49.8%; in the assay on HeLa [7], 46.9%; in the assay with HeLa [12] it was 35%; in the assay with HeLa [14] it was 22.4%; in the assay on HeLa [16], 30.7%; with HeLa [20], 15.2%. In addition, the result (with Calf thymus DNA [4]; in assay [5]; in the assay with HeLa [6]; with NCI-H358; in the assay with HEp-2 [10]; in the assay with MCF7 [11]) was Active. For the same compound, the outcome (with Calf thymus DNA [18]; in the assay on HeLa [19]; with HT-29; in the assay with AGS; in [21]; in the assay with MIA PaCa-2) was Active. In addition, the result in the assay on Caco-2 was Active. In the assay on MCF7 [13], the inhibition at 0.1 µM came to 40%. The inhibition at 1 µM stood at 80% in the assay on HEp-2 [22] and 40% in the assay on HeLa [23]. The Ratio IC50 in the assay filed under Bos taurus worked out at 0.38.
On to `c1cc2nc(-c3sc(-c4nc5ccc(C6=NCCN6)cc5[nH]4)c4c3OCCO4)[nH]c2cc1C1=NCCN1`, for which the ΔTm in the assay with Calf thymus DNA [2] is 11.4 °C; in the assay with Nucleic Acid [8], 0.4 °C; in the assay on Nucleic Acid [9] it was 0.3 °C; in the assay on Calf thymus DNA [15], 12.2 °C; with Calf thymus DNA [17], 11.9 °C; in the assay with Nucleic Acid [25], -0.2 °C. Moreover, the ΔTm in the assay on Calf thymus DNA [26] was 12.3 °C. For the same compound, the outcome (in the assay with Calf thymus DNA [4]; in assay [5]; with MCF7 [11]; in the assay with Calf thymus DNA [18]; in assay [21]) was Active. Further, in the assay filed under Bos taurus, the Ratio IC50 worked out at 0.38.
With `CN1CCN(c2ccc3[nH]c(-c4ccc5[nH]c(-c6ccc(O)cc6)nc5c4)nc3c2)CC1` [HOECHST 33258], the Activity in the assay on HeLa [27] is on record as 29.9%; in the assay with HeLa [28] it was 23.4%; in the assay on HeLa [29], 23.9%; in the assay with HeLa [30], 33.6%; in the assay on HeLa [31], 46.3%; with HeLa [32], 43.1%. For the same compound, the result with MCF7 [11] was Active. Also, the outcome in the assay with HeLa [33] was inactive.
Take `N=C(N)c1ccc2nc(-c3sc(-c4nc5ccc(C(=N)N)cc5[nH]4)c4c3OCCO4)[nH]c2c1`: the ΔTm in the assay with Calf thymus DNA [2] was 13.9 °C; with Nucleic Acid [9], -0.3 °C; in the assay on Calf thymus DNA [15] it was 12.7 °C; in the assay on Calf thymus DNA [17] it was 14.4 °C; in the assay with Nucleic Acid [25], -0.9 °C; in the assay on Calf thymus DNA [26], 12.9 °C. Also, the outcome (in the assay with Calf thymus DNA [4]; in assay [5]; in the assay with MCF7 [11]; with Calf thymus DNA [18]; in assay [21]) was Active. Also, the Ratio IC50 in the assay filed under Bos taurus turned out to be 0.48.
